According to ChEMBL document CHEMBL4364346, “Structure optimization of a new class of PPARγ antagonists” (Bioorg Med Chem, 2019):
pIC50: −log10 of the molar value. In brackets after ≈: the same amount, converted by molar mass.

Tests used:
[1] = biological target: T1, Peroxisome proliferator-activated receptor gamma (Homo sapiens, UniProt P37231); test: Antagonist actvity in pFA-GAL4-DBD fused PPARgamma LBD (unknown origin) transfected in HEK293T cells assessed as inhibition of rosiglitazone-induced PPARgamma transactivation incubated for 24 hrs by luciferase reporter gene assay; type: cell-based; settings: for pIC50: read-out: IC50
T1 sequence (P37231 whole entry): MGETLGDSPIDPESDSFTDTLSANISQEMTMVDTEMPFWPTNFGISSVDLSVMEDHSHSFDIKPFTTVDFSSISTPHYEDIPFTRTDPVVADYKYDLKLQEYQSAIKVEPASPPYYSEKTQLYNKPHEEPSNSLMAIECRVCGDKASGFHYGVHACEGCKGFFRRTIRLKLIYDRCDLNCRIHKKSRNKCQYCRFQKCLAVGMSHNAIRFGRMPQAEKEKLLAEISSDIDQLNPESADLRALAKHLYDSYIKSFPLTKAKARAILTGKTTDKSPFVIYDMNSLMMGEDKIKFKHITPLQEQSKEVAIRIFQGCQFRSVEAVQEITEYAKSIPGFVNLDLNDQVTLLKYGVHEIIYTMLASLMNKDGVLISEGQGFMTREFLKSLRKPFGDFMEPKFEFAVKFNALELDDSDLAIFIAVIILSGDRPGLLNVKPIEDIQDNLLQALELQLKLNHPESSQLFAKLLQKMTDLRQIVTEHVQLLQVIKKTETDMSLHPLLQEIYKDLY

[2] = Solubility of compound in PBS buffer pH 7.4 with 1% DMSO measured after 1 and 24 hrs; type: physicochemical; settings: PBS buffer with 1% DMSO

pIC50 [1]	Compound	also measured
5.46	CCC/C(=C\c1cc(OCc2ccc3nc(C(F)(F)F)cc(OC)c3c2)ccc1OCc1ccccc1F)C(=O)O	
5.33	CCC/C(=C\c1cc(OCc2ccc3nc(C(F)(F)F)cc(OC)c3c2)ccc1OCc1ccncc1)C(=O)O	
5.72	CCCC/C(=C\c1cc(OCc2ccc3nc(C(F)(F)F)cc(OC)c3c2)ccc1OCc1ccc(OC(F)(F)F)cc1)C(=O)O	
5.02	CCC/C(=C\c1cc(OCc2ccc3nc(C(F)(F)F)cc(OC)c3c2)ccc1NC(=O)c1ccc(F)cc1)C(=O)O	
5.64	CCCC/C(=C\c1cc(OCc2ccc3nc(C(F)(F)F)cc(OC)c3c2)ccc1OCc1ccc(F)cc1)C(=O)O	
5.14	CCC/C(=C\c1cc(OCc2ccc3nc(C(F)(F)F)cc(OC)c3c2)ccc1OCc1ccccc1)C(=O)O	
5.41	CCC/C(=C\c1cc(OCc2ccc3nc(C(F)(F)F)cc(OC)c3c2)ccc1OCc1cccc(F)c1)C(=O)O	
5.49	CCC/C(=C\c1cc(OCc2ccc3nc(C(F)(F)F)cc(OC)c3c2)ccc1OCc1ccc(F)cc1)C(=O)O	
5.03	COc1cc(C(F)(F)F)nc2ccc(COc3ccc(OCc4ccc(F)cc4)c(/C=C(\C)C(=O)O)c3)cc12	
4.96	COc1cc(C(F)(F)F)nc2ccc(COc3ccc(OCc4ccc(F)cc4)c(/C=C/C(=O)O)c3)cc12	
5.59	CCCC/C(=C\c1cc(OCc2ccc3nc(C(F)(F)F)cc(OC)c3c2)ccc1OCc1ccc(OC(F)F)cc1)C(=O)O	
5.24	CC/C(=C\c1cc(OCc2ccc3nc(C(F)(F)F)cc(OC)c3c2)ccc1OCc1ccc(F)cc1)C(=O)O	
5.08	COc1cc(C(F)(F)F)nc2ccc(COc3ccc(OCc4ccc(F)cc4)c(/C=C(\CC4CC4)C(=O)O)c3)cc12	

Second part, the compound before the results:

Compound	pIC50 [1]	also measured
CCCC/C(=C\c1cc(OCc2cn(Cc3ccc(C(=O)O)cc3)nn2)ccc1OCc1ccc(C(F)(F)F)cc1)C(=O)O		IC50 [1]: Not Active
CCC/C(=C\c1cc(OCc2ccc3ccccc3c2)ccc1OCc1ccc(F)cc1)C(=O)O	4.80	
COc1cc(C(F)(F)F)nc2ccc(COc3ccc(OCc4ccc(F)cc4)c(/C=C(\F)C(=O)O)c3)cc12		IC50 [1]: Not Active
CCC/C(=C\c1cc(OCc2ccc3cccnc3c2)ccc1OCc1ccc(F)cc1)C(=O)O	4.62	
CCC/C(=C\c1cc(OCc2ccc3nc(C(F)(F)F)cc(OC)c3c2)ccc1OCCN1CCNCC1)C(=O)O	5.02	
CCC/C(=C\c1cc(OCc2ccc3[nH]ccc3c2)ccc1OCc1ccc(F)cc1)C(=O)O		IC50 [1]: Not Active
COc1cc(C(F)(F)F)nc2ccc(COc3ccc(OCC4CCN(C)CC4)c(/C=C(\CCC4CC4)C(=O)O)c3)cc12	5.12	
CCCC/C(=C\c1cc(OCc2ccc3nc(C(F)(F)F)cc(OC)c3c2)ccc1OCc1ccc(C(F)(F)F)cc1)C(=O)O		solubility at 24 h [2]: 50 to 75 µM (≈ 31.7 to 47.5 µg/mL)
CCC/C(=C\c1cc(OCc2ccc3c(ccc[n+]3[O-])c2)ccc1OCc1ccc(F)cc1)C(=O)O	5.21	
CCC/C(=C\c1cc(OCc2ccc3nc(C(F)(F)F)cc(OC)c3c2)ccc1OCC1CCNCC1)C(=O)O		IC50 [1]: Not Active
CCC/C(=C\c1cc(OCc2ccc3[nH]c(=O)ccc3c2)ccc1OCc1ccc(F)cc1)C(=O)O	5.21	
CCC/C(=C\c1cc(OCc2ccc(N(C)C)cc2)ccc1OCc1ccc(F)cc1)C(=O)O		IC50 [1]: Not Active
CCC/C(=C\c1cc(OCc2ccc3ncccc3c2)ccc1OCC1CCN(C)CC1)C(=O)O	4.82	
CCC/C(=C\c1cc(OCc2ccc3ncccc3c2)ccc1OCc1ccc(F)cc1)C(=O)O	5.30	
CCCCC(Cc1cc(OCc2ccc3nc(C(F)(F)F)cc(OC)c3c2)ccc1OCc1ccc(C(F)(F)F)cc1)C(=O)O (configuration not stated)		IC50 [1]: Not Active
CCC/C(=C\c1cc(OCc2ccc3ccccc3n2)ccc1OCc1ccc(F)cc1)C(=O)O	4.88	
CCCn1c(C(=O)O)cc2c(OC)ccc(OCc3ccc4nc(C(F)(F)F)cc(OC)c4c3)c21	5.41	
CCC/C(=C\c1cc(OCc2ccc3nc(C)ccc3c2)ccc1OCc1ccc(F)cc1)C(=O)O	5.38	
CCC/C(=C\c1cc(OC)ccc1OCc1ccc2nc(C(F)(F)F)cc(OC)c2c1)C(=O)O		IC50 [1]: Not Active
